Source: US10071042B2, “External dermatological agent for anti-ageing” (Hayashibara Co., Ltd., priority 2014, dated 2018)

Test system: filaggrin protein
Test: Expression of filaggrin protein, Western blot filaggrin/actin (Experiment 3)
Type: cell-based, human
Details: control = 100%
Description: Then, the expression of filaggrin was induced in such a manner of further culturing the cells for another four days, while replacing the culture medium with an EpiLife medium supplemented with 2 μM, 5 μM, or 10 μM of sodium adenosine N1-oxide 5′-phosphate every three days. […] After four days culture, the resultant cells were washed with Dulbecco's phosphate buffered saline, added with 0.1 mL of an SDS sample buffer (pH 6.8) containing 62.5 mM Tris-HCl, 2% SDS, 10% glycerol, and 50 mM DTT along with a protease inhibitor, and collected with a cell scraper. The collected cells were boiled for 10 min, disrupted ultrasonically, and quantified with “Pierce BCA Protein Assay Kit”, commercialized by ThermoFisher Scientific K. K., Yokohama, Japan. A prescribed amount of the resulting disrupted cells was sampled and subjected to SDS-polyacrylamide gel electrophoresis in an amount of 100 μg/lane, and the resulting gel was transferred to a PVDF membrane. The resulting transferred PVDF membrane was blocked with “Block Ace”, commercialized by DS Pharma Biomedical Co., Ltd., Osaka, Japan, reacted with a 200-fold dilution of “AKH1”, a mouse anti-filaggrin antibody, commercialized by, Santa Cruz Biotechnology Inc., CA, USA, or a 20,000-fold dilution of “MAB1501”, a mouse actin antibody, commercialized by Chemicon International Inc., MA, USA, as a first antibody, and then reacted with a 2,000-fold dilution of “P0447”, an HRP-labeled anti-mouse immunoglobulin, commercialized by Dako Japan, Tokyo, Japan, as a secondary antibody. After the reaction, by using ECL Plus Western Blotting Detection System, commercialized by GE Healthcare Japan, Tokyo, Japan, bands were detected on “Hyperfilm ECL”, a chemiluminescent film commercialized by GE Healthcare Japan, Tokyo, Japan. The detected bands were analyzed and quantified with “Image J”, an image analyzing software. A control system with no addition of any of the test substances was provided and the increasing intensity ratio of a band of filaggrin/actin was regarded as 100%, with which data for the increased percentages of the intensity ratios of bands of filaggrin/actin of the test substances were comparatively evaluated.

## Nc1c2ncn([C@@H]3O[C@H](COP(=O)([O-])O)[C@@H](O)[C@H]3O)c2nc[n+]1[O-].[Na+] [Sodium adenosine N1-oxide 5′-phosphate, sodium adenosine N1-oxide 5′-phosphate]
2 μM
  Relative expression level of filaggrin protein (%): 133%
5 μM
  Relative expression level of filaggrin protein (%): 206%
10 μM
  Relative expression level of filaggrin protein (%): 308%
